From patent US6685913B1, “Lipid soluble radioactive metal chelates for tumor therapy” (Thomas Jefferson University, priority 1999, dated 2004)
Entries after “also recorded” stand apart in the source; their conditions may differ.

How the values were obtained:
[1] = Retention of radioactivity after intratumoral injection, first study (gamma camera, ionization chamber); format: in vivo, athymic nude mice
[2] = Distribution of radioactivity in tumor and organs at sacrifice; format: in vivo, nude mice
Excerpt: (§1) These organs were then weighed.

[3] = Body weight, additional studies; format: in vivo, nude mice; conditions: treatment period
Method: Human prostate and human breast tumors were grown in two separate groups of nude mice. Six mice in each group were divided in two subgroups of 3 mice each. Three mice were treated with intratumoral injections of either Indium-111-oxine or Indium-111-Merc. Each group of mice was then placed in rodent cages separately and cared for with regular diet and water ad lib. Each day the animals were weighed, and tumor diameter was measured three times with a Vernier caliper.

[4] = tested on: human colorectal carcinoma cells LS174T; conditions: single intratumoral injection, day 22, control tumor 3.2 cm
Method: Tumors were allowed to grow to approximately 0.5 cm in diameter.
On day one, two of the four tumor-bearing mice received a single intratumoral injection of approximately 100 μl Indium-111-oxine. Mice were placed in an ionization chamber, and radioactivity was recorded after the injection and then daily for 28 days. On each day, radioactivity was corrected for decay, and the percent of injected dose retained in the animal was calculated and recorded. Animals were also weighed daily in a calibrated balance.
On day one, all four mice were lightly anesthetized and photographs taken. Mice receiving Indium-111-oxine were also imaged with a gamma camera 28 days later. This qualitatively recorded the distribution of radioactivity, 28 days after it was injected.The control animals received a single intratumoral injection of 100 μl of 25% ethanol in 0.9% NaCl. Two radioactive animals and the control animals were then cared for in two separated cages and allowed to eat and drink at liberty.
On day 22, the two mice treated with Indium-111-oxine received 100 μl of Indium-111-Merc each in two places in tumors. The control animals also received two intratumoral injection of 0.05 M phosphate buffer pH−7.4.
As before, the mice were weighed daily and radioactivity remaining in their bodies was measured for an additional 10 days.

[5] = tested on: human prostate cancer cells DU145; conditions: one month
Method: Additional feasibility studies were performed using two lipid soluble agents, Indium-111-oxine and Indium-111-Mercaptopyridine-N-oxide (Merc). Human prostate and human breast tumors were grown in two separate groups of nude mice. Six mice in each group were divided in two subgroups of 3 mice each. Three mice were treated with intratumoral injections of either Indium-111-oxine or Indium-111-Merc. Each group of mice was then placed in rodent cages separately and cared for with regular diet and water ad lib. Each day the animals were weighed, and tumor diameter was measured three times with a Vernier caliper.
Radioactivity received by each animal was carefully measured, and each day the amount of radioactivity retained in the animal body was measured using an energy calibrated radiation dose calibrator. Two weeks after the first injection, a second dose of the same agent was readministered, also intratumorally and the procedure was followed as described above, for the next two weeks. […] Indium-111 associated with each tissue was counted, and the radioactivity distributed in each organ was calculated as the percent of the total radioactivity retrained in each animal. Histology on critical organs, such as the liver, bladder, and kidney, as well as tumor histology, was assessed in treated animals and in untreated control animals. […]

[6] = tested on: cells; conditions: cited from earlier work
[7] = tested on: human breast cancer cells T47D; test: Intratumoral injection study on T47D tumor-bearing nude mice: tumor size; format: in vivo; conditions: one month
Method: as §1
Indium-111-Merc was prepared also by a method described previously. (Thakur et al, J Nucl Med 26: 518-523, 1985). Briefly, to one ml 0.067 M phosphate buffer pH 7.4, a required quantity of Indium-111-chloride was added followed by 50 μg Merc in 50 μl 0.067 M phosphate buffer pH 7.4. The reaction mixture was vortexed, and resultant Indium-111-Merc was extracted in chloroform or methylene chloride. This was evaporated to dryness, and the complex was taken up in 50 μl ethanol and 150 μl 0.9% NaCl. A known amount of radioactivity in 50 μl was then injected directly into the tumor in each mouse.
For treatment with Indium-111-Merc, human breast cancer cells (5×10^6) T47D were implanted similarly. These were also allowed to grow to up to 0.5 cm in diameter.

[8] = cited from earlier work

Compound	radioactivity retained in the tumor (gamma camera image) ([1]; 22 days after intratumoral Indium-111-oxine injection)	kidney uptake at sacrifice ([2]; DU145 tumor-bearing mice) [%]	liver uptake at sacrifice ([2]; DU145 tumor-bearing mice) [%]	injected activity retained in tumor at sacrifice ([2]; DU145 tumor-bearing mice, corrected for decay) [%]	body weight change ([3]; DU145 tumor-bearing mice, on the average)	tumor growth in treated animal [4]	tumor growth in treated mice (tumor size versus time, FIG. 4) ([5]; DU145 tumor-bearing nude mice)	average tumor growth during the treatment period ([5]; DU145 tumors, two intratumoral doses two weeks apart, untreated mice 200%) [%]	labeling of cells in the presence of plasma [6]	radioactivity still in the tumor (gamma camera image) ([1]; 10 days after intratumoral Indium-111-Merc injection)	radioactivity retained in animal body ([1]; ten days after the injection of Indium-111-Merc)	tumor growth in treated mice (tumor size versus time, FIG. 5) ([7]; T47D tumor-bearing nude mice)	average tumor growth in the treated mice ([7]; T47D tumors, two intratumoral doses two weeks apart, untreated controls 477%) [%]	injected activity retained in tumor at sacrifice ([2]; T47D tumor-bearing mice) [%]	kidney activity at sacrifice ([2]; T47D tumor-bearing mice) [%]	liver activity at sacrifice ([2]; T47D tumor-bearing mice) [%]	body weight change ([3]; T47D tumor-bearing mice)	stability in plasma [8]
[111In+3].[O-]c1cccc2cccnc12.[O-]c1cccc2cccnc12.[O-]c1cccc2cccnc12 [Indium-111-oxine, Indium-111-oxine (8-hydroxyquinoline)]	a major proportion; also recorded: nearly all	7.5	5.4	86.5	none of the treated or untreated mice either gained or lost body weight	has not grown	arrested	117	not capable of binding cells in plasma; also recorded: cannot efficiently label cells	–	–	–	–	–	–	–	–	–
Indium-111-Merc (2-Mercaptopyridine-N-oxide)	–	–	–	–	–	–	–	–	can label cells in the presence of plasma	a major proportion	all	arrested	172	92.97	4.03	1.02	gained some body weight	does not break down in plasma
